Source: patent publication US20090306132A1, “USE OF DERIVATIVES OF NAPHTHALENESULPHONIC OR QUINOLINESULPHONIC ACID IN THE TREATMENT OF VASOPROLIFERATIVE OCULAR DISEASES” (ITALFARMACO, S.A., priority 2006, published 2009)

Tested on: hypoxia-induced hypervascularization of the retina
Experiment: Inhibition of hypoxia-induced vascularization in a mouse model of retinopathy of prematurity (retinopathy score)
Type: in vivo, C57BL/6J mice
Description: A total of thirty C57BL/6J mice were used in a model of retinopathy of prematurity. Seven days after birth, the mice (young) were transferred together with their mothers to a high-oxygen atmosphere (75%) obtained using a mixture of oxygen and air. After 5 days, the animals were transferred to a normal atmosphere. The relative hypoxia produced leads to the release of growth factors which, in turn, cause hypervascularization of the retina. 14-18 hours thereafter, an intravitreous injection of 2 μl of a sterile saline solution of sodium 5-amino-2-naphthalene sulfonate (25 mg/ml) into an eye was performed, and another injection of an equivalent volume of saline solution was performed in the contralateral eye.
Five days after the return to normal atmosphere, the mice were put down by means of an intracardiac injection of dextrane marked with fluorescein (50 mg/ml), the nuclei were removed from both eyes and were fixed for 2 to 6 hours in formaldehyde (4%) at room temperature.
Subsequently, the retina was cut and mounted for observation by fluorescent microscopy, with the vasculature of the retina being assessed. Given that the retina occupies a circular area, in order to perform the assessment, 12 equal radial segments are considered. For the assessment of the central vascularization, the retina is divided into three concentric circles defining three zones: the interior zone around the optic disc, the middle and the exterior zone.
The retinopathy is quantified using a system of multiple assessment in which various morphological parameters associated with retinopathy are assessed: • Presence of a “crest” in each radial segment. One point for each radial segment with the presence of crests. Scoring from 0 to 12. • Presumed extraretinal vascularization, indicated by the presence of groupings of “crest-like” structures. One point for each radial segment with groupings. Scoring from 0 to 12. • Size of the central avascular zone. Scoring from 0 to 3, with 0 meaning an occupation of less than 50% of the interior zone; 1 an occupation of less than 25% of the sum of the interior and middle zone; 2 an occupation of between 25-50% of said sum and 3 an occupation of greater than 50% of same. • Tortuosity of the vessels, measured as a percentage of tortuous vessels with respect to the total. The scoring ranges from 0 to 3, with 0 meaning no tortuosity, 1 if less than ⅓ of the total are tortuous, 2 if between ⅓ and ⅔ are tortuous, and 3 if more than ⅔ are tortuous.
For each eye, a global assessment was obtained consisting of the sum of the points obtained for each parameter.
The statistical analysis of the data was performed subsequently using a Wilcoxon's test.

[1] = intravitreous injection of 2 μl of 25 mg/ml in saline, five days after return to normal atmosphere, N 30

Nc1cccc2cc(S(=O)(=O)[O-])ccc12.[Na+] [ACTIVE, sodium 5-amino-2-naphthalene sulfonate]
Effect seen in histological sections of treated eye versus contralateral placebo eye (in words) (histological sections, FIG. 2): antiangiogenic effect | Global retinopathy assessment (sum of the points obtained for each parameter), Median (intravitreous injection of 2 μl of 25 mg/ml in saline into one eye, saline in contralateral eye, assessed five days after return to normal atmosphere, N 30, p=0.017 vs placebo (Wilcoxon)): 10.5 | Global retinopathy assessment (sum of the points obtained for each parameter), Maximum [1]: 16 | Global retinopathy assessment (sum of the points obtained for each parameter), Minimum [1]: 3 | Effect on neovascularization induced by hypoxia of the retina (in words) (score compared to placebo, FIG. 1): inhibitory effect
